This note sets out measurements from patent US9924714B2, “Impregnatable matrix of plant, animal or synthetic origin or mixtures of same, containing a uniformly distributed antimicrobial compound, method for impregnating said matrix with a compound, and use thereof in the production of antimicrobial elements” (COMPAÑIA MINERA SAN GERONIMO, priority 2013, dated 2018).

Several values for one entry are separate records, joined by “and”; a condition that tells them apart may be missing. Equal values may be shown once.

Holding throughout (format): cell-based
The subject of assay [1] is Staphylococcus aureus ATCC25923. In words: Disc growth inhibition halo test (Example 2). To be noted: commercial disc 30 μg Km.
Assay [2] deals with Staphylococcus epidermidis ATCC25923. Nature of the assay: Disc growth inhibition halo test (Example 2). To be noted: commercial disc 30 μg Km.
Assay [3] has as its system Streptococcus pneumoniae ATCC14325. Nature of the assay: Disc growth inhibition halo test (Example 2). To be noted: commercial disc 30 μg Km.
The subject of assay [4] is Streptococcus pyogenes ATCC2367. Nature of the assay: Disc growth inhibition halo test (Example 2). To be noted: commercial disc 30 μg Km.
Assay [5] deals with Enterococcus faecium ISP133/04. In words: Disc growth inhibition halo test (Example 2). The following applies: commercial disc 30 μg Km.
In assay [6] the test system is Enterococcus faecalis ATCC29212. Nature of the assay: Disc growth inhibition halo test (Example 2). The following applies: commercial disc 30 μg Km.
Assay [7] deals with Escherichia coli ATCC25922. In words: Disc growth inhibition halo test (Example 2). To be noted: commercial disc 30 μg Km.
Assay [8] relates to Pseudomonas aeruginosa PAOI. In words: Disc growth inhibition halo test (Example 2). The following applies: commercial disc 30 μg Km.
Assay [9] concerns Citrobacter freundii ISP1949/99. Nature of the assay: Disc growth inhibition halo test (Example 2). The following applies: commercial disc 30 μg Km.
The subject of assay [10] is Enterobacter aerogenes ATCC13048. Nature of the assay: Disc growth inhibition halo test (Example 2). The following applies: commercial disc 30 μg Km.
For assay [11], the system named is Acinetobacter baumanii UPP4 56. Nature of the assay: Thick cloth growth inhibition test (Example 6). To be noted: commercial disc 30 μg Km. On the procedure: (§1) This example determined qualitatively the antibacterial effect of the copper solution proposed, embedded in a matrix of thick fabric which was prepared following the procedure of the present invention. Pieces of cloth of about 2×2 cm were prepared and embedded with the product and then were deposited on a background lawn of 12 different bacteria strains.
(§2) In order to do this, it was prepared a bacterial culture of 16 hours, with the strain of interest, it was performed a 1/30 dilution of the culture with fresh medium and incubated under stirring at 37° C. until reaching the exponential growth phase (D0600 nm 0.4-0.5). It was taken an aliquot of 100 μL of the culture in exponential phase, and deposited in 4 mL of Mueller-Hinton soft agar at 0.8% (previously melted and stabilized at 50° C.). The mixture was deposited on a Petri dish with 20 mL of Mueller-Hinton agar base. Once the agar was gelled, each of the discs with different amounts of the test compound were deposited on the background lawn, and incubated at 37° C. during 48 hours.
(§3) Experiments were performed in triplicate in independently, using as negative control discs with the solvent DMSO alone and cloth without the product of study. As positive control were used commercial discs used with 30 μg of antibiotic Kanamycin (Km).

Assay [12] has as its system Citrobacter freundii ISP1949/99. In words: Thick cloth growth inhibition test (Example 6). To be noted: commercial disc 30 μg Km. On the procedure:
as §1, §2, §3

For assay [13], the system named is Enterobacter aerogenes ATCC13048. Nature of the assay: Thick cloth growth inhibition test (Example 6). The following applies: commercial disc 30 μg Km; in mm. On the procedure: as §1, §2, §3
In assay [14] the test system is Enterococcus faecalis ATCC29212. Nature of the assay: Thick cloth growth inhibition test (Example 6). To be noted: commercial disc 30 μg Km; in mm. How it is done:
as §1, §2, §3

In assay [15] the test system is Enterococcus faecium ISP133/04. Nature of the assay: Thick cloth growth inhibition test (Example 6). To be noted: commercial disc 30 μg Km; in mm. On the procedure:
as §1, §2, §3

The test system of assay [16] is Escherichia coli ATCC25922. Nature of the assay: Thick cloth growth inhibition test (Example 6). The following applies: commercial disc 30 μg Km; in mm. How it is done:
as §1, §2, §3

For assay [17], the system named is Klebsiella pneumoniae ATCC4352. Nature of the assay: Thick cloth growth inhibition test (Example 6). The following applies: commercial disc 30 μg Km; in mm. How it is done: as §1, §2, §3
In assay [18] the test system is Pseudomonas aeruginosa PAOI. In words: Thick cloth growth inhibition test (Example 6). The following applies: commercial disc 30 μg Km; in mm. On the procedure: as §1, §2, §3
In assay [19] the test system is Staphylococcus aureus ATCC25923. In words: Thick cloth growth inhibition test (Example 6). The following applies: commercial disc 30 μg Km; in mm. On the procedure: as §1, §2, §3
In assay [20] the test system is Staphylococcus epidermidis ATCC2S923. Nature of the assay: Thick cloth growth inhibition test (Example 6). To be noted: commercial disc 30 μg Km; in mm. How it is done:
as §1, §2, §3

Assay [21] has as its system Streptococcus pneumoniae ATCC14325. In words: Thick cloth growth inhibition test (Example 6). To be noted: commercial disc 30 μg Km; in mm. How it is done: as §1, §2, §3
The test system of assay [22] is Streptococcus pyogenes ATCC2367. Nature of the assay: Thick cloth growth inhibition test (Example 6). The following applies: commercial disc 30 μg Km; in mm. How it is done: as §1, §2, §3
Assay [23] has as its system Escherichia coli ATCC25922. In words: Inhibition halos of fabrics after washing (Example 7). To be noted: commercial disc 30 μg Km; in mm. How it is done:
(§4) This example established qualitatively the antibacterial activity of matrixes in thin fabric (Fabric 1) and thick fabric (Fabric 2) embedded with the product, following the procedure described herein, and after subjected to washing. In order to do this, there were taken pieces of 2×2 cm from both fabrics, cut and washed for 2 hours with stirring using commercial laundry detergent. Subsequently, the washed fabric pieces which have the new product are dried in an oven at 40° C. for 3 hours and placed on the background lawn. In order to generate the background lawn, it was prepared a bacterial culture of 16 hours, with the strain of interest, it was performed a 1/30 dilution of the culture with fresh medium and incubated under stirring at 37° C. until reaching the exponential growth phase (D0600 nm 0.4-0.5). It was taken an aliquot of 100 μL of the culture in exponential phase, and deposited in 4 mL of Mueller-Hinton soft agar at 0.8% (previously melted and stabilized at 50° C.). The mature was deposited on a Petri dish with 20 mL of Mueller-Hinton agar base. […]
(§5) Experiments were performed in triplicate and in three independent events. From the treated plates, it was measured the zone of inhibition generated by each control and fabrics embedded with the proposed compound, which is summarized in Table 7.

Assay [24] deals with Staphylococcus aureus ATCC25923. Described as above. To be noted: commercial disc 30 μg Km; in mm. On the procedure: as §4, §5

Turning to `NC[C@H]1O[C@H](O[C@H]2[C@H](O)[C@@H](O[C@H]3O[C@H](CO)[C@@H](O)[C@H](N)[C@H]3O)[C@H](N)C[C@@H]2N)[C@H](O)[C@@H](O)[C@@H]1O` [Km, Kanamycin], the Growth inhibition zone is 21 ± 2 mm and 20 ± 0.8 mm and 15 ± 0.5 mm and 19.0 mm in [1]; 16 + 0.5 mm and 14 + 0.7 mm and 18 ± 0.7 mm and 18.5 ± 3.5 mm in assay [2]; 15 ± 0.8 mm and 12.5 ± 1.2 mm and 11 ± 1 mm and 11.5 ± 0.8 mm in assay [3]; 5 mm and 5.0 mm in assay [4]; 12.5 ± 1.2 mm and 9 ± 0.7 mm and 11.0 mm in assay [5]; 10 mm and 15 + 0.6 mm and 15 ± 0.6 mm and 10.5 ± 0.2 mm in assay [6]. Also, the Growth inhibition zone is 18 ± 1.8 mm and 15 ± 0.2 mm and 18 ± 0.7 mm and 20.0 ± 0.7 mm in [7]; 7 ± 1.0 mm and 9 ± 0.7 mm and 7 + 0.7 mm and 7.0 ± 1.4 mm in [8]; 19 ± 0.3 mm and 12 ± 0.5 mm and 15 ± 0.5 mm and 19.0 ± 0.2 mm in [9]; 14 + 0.5 mm and 15 ± 0.4 mm and 16 ± 0.4 mm and 19.0 ± 0.7 mm in assay [10]; 5 mm in assay [11]; 17.0 ± 0.3 in assay [12]. For the same compound, the Growth inhibition zone in assay [13] was found to be 12.0 ± 0.5; in assay [14], 14.0 ± 1.0; in assay [15], 11.0 ± 0.8; in [16], 19.0 ± 0.5; in assay [17] it was 18.0 ± 1.0; in assay [18], 7.0 ± 0.5. The Growth inhibition zone was 18.0 ± 0.5 in assay [19]; 24.0 ± 1.0 in assay [20]; 10.0 ± 0.2 in assay [21]; 6.0 ± 1.0 in assay [22]; 20.6 ± 0.6 in [23]; 18.0 ± 1.4 in assay [24].
